Laboratory results taken from patent US20060241026A1, “Novel cyclic peptides and use thereof as anti-microbial agents” (priority 2002, published 2006).
≈ marks a conversion by molar mass, not a printed value. Entries after “also recorded” stand apart in the source; their conditions may differ. Where two headings read alike, the source gives them in different places. Positions of bridges follow the written chain, without caps; N, C: chain ends. Residues, ends and D or L forms follow the SMILES beside them.

Assays:
Fusarium oxysporum = format: cell-based
Method: (§1) The anti-fungal activity was determined by calculating the MIC in a growth inhibition assay for the shrimp parasite fungus Fusarium oxysporum, in liquid phase, according to the protocol described by FELHBAM et al. (J. Biol. Chem., 1994, 269:33159-63). Doubling dilutions of each peptide were realized in the wells of a Microtest plate in a volume of 10 μl. 90 μl of spores resuspended in potato dextrose broth medium (DIFCO) at a final concentration of 10^4 spores/ml were added to each well. The growth inhibition was measured after incubation for 24 h at 25° C. in the dark, by observation under an optical microscope and measurement of the increase in OD at 600 nm. The value of the MIC corresponds to the first well for which the optical density had not increased.

Staphylococcus aureus = format: cell-based
Method: (§2) The activity of the synthetic peptides was tested with respect to the Gram+ bacteria Mycrocossus luteus, Staphylococcus aureus, Staphylococcus epidermidis and Bacillus megaterium. The activities were determined according to the protocol described by HANCOCK et al. (http://www.interchg.ubc.ca/bobh/methods.htm)
(§3) The MIC was determined for each peptide by inhibition of growth in liquid medium. Doubling dilution of peptide was realized in the wells of a Microtest plate in a volume of 10 μl. The bacteria were grown in MUELLER HINTON BROTH (MHB, Difco) liquid medium. During the exponential growth phase, a solution with an optical density of 0.001 at 600 nm was produced, and 100 μl of this suspension were added to each well. The incubation lasted 24 h at 30° C., and the optical densities of each well were then measured at 600 nm. The value of the MIC corresponds to the first well for which the optical density had not changed.
(§4) The dishes were incubated for 24 h at 30° C. The value of the MBC corresponds to the lowest concentration of the peptide for which no colony developed.

Bacillus megaterium = format: cell-based
Method: as §2, §3, §4

[1] = system: Staphylococcus epidermidis; format: cell-based
Method: as §2, §3, §4

Micrococcus luteus = format: cell-based
Method: as §2, §3, §4

Gram+ bacteria = conditions: cited from earlier work
[2] = system: Gram+ and Gram− bacteria and a filamentous fungus; experiment: Antibiotic tests on Gram+ and Gram- bacteria and on a filamentous fungus, summary in words; format: cell-based; conditions: compared with the native molecule or the minimal loop
Method: as §2, §3, §4, §1
Using the 3-D structure of the native molecule as a basis, said molecule was fractionated into 17 elements (table I). All these fragments were synthesized and their activities were assayed using antibiotic tests on Gram+ and Gram− bacteria and on a filamentous fungus. The minimum inhibitory concentration (MIC) and minimum […] concentration (MBC) of each peptide were thus determined and were compared with those of the native molecule.

[3] = system: Gram+ and Gram− bacteria and a filamentous fungus; experiment: as above; format: cell-based

Row | Compound | Fusarium oxysporum MIC (Fusarium oxysporum; 24 h) [µM] | Staphylococcus aureus MIC (Staphylococcus aureus) [µM] | Bacillus megaterium MIC (Bacillus megaterium; Bacillus) [µM] | Staphylococcus epidermidis MIC [1] [µM] | Micrococcus luteus MIC (Micrococcus luteus) [µM] | MIC on M leuteus (Micrococcus luteus; 24 h) [µM] | Fusarium oxysporum MIC (Fusarium oxysporum; Table II, 24 h at 25° C.) [µM] | Staphylococcus aureus MBC (Staphylococcus aureus; Table II) [µM] | Staphylococcus aureus MIC (Staphylococcus aureus; Table II) [µM] | Bacillus megaterium MBC (Bacillus megaterium; Table II) [µM] | Bacillus megaterium MIC (Bacillus megaterium; Table II) [µM] | Staphylococcus epidermidis MBC ([1]; Table II) [µM] | Staphylococcus epidermidis MIC ([1]; Table II) [µM] | Micrococcus luteus MBC (Micrococcus luteus; Table II) [µM] | Micrococcus luteus MIC (Micrococcus luteus; Table II) [µM] | anti-microbial activity (in words) [2] | Staphylococcus aureus MBC (Staphylococcus aureus) [µM] | Bacillus megaterium MBC (Bacillus megaterium; Bacillus) [µM] | Staphylococcus epidermidis MBC [1] [µM] | Micrococcus luteus MBC (Micrococcus luteus) [µM] | also measured
1 | GFGCPNNYQCHRHCKSIPGRCGGYCGGWHRLRCTCYRCG (listed as Mytilus galloprovincialis) [SEQ ID NO:3, Mytilus galloprovincialis defensin, small cationic protein of 4 kDa comprising 39 amino acids; native molecule, reference compound] |  |  |  |  |  |  | 5 | 1.2 | 0.6 | 1.5 | 0.8 | 6.2 | 3.1 | 1.5 | 0.6 |  |  |  |  |  | MBC on M leuteus (Micrococcus luteus; Table 1, plating on MHA, 24 h at 30° C.): 2 µM; anti-bacterial and anti-fungal activity of MGD1 (in words) (Gram+ bacteria): has anti-bacterial activity against Gram+ bacteria and anti-fungal activity
2 | N=C(N)NCCC[C@@H]1NC(=O)[C@H](CCCCN)NC(=O)[C@H](CCCNC(=N)N)NC(=O)[C@H](CCCCN)NC(=O)[C@H](Cc2c[nH]c3ccccc23)NC(=O)CNC(=O)CNC(=O)[C@@H](N)CSSC[C@@H](C(=O)O)NC1=O [SEQ ID NO:2, C^(S)GGWKRKRC^(S)] (H-CGGWKRKRC-OH; disulfide 1-9; N-terminus and C-terminus assumed) | 43 | 15 | 24 | 20 | 14 | 13 (≈ 14.2 µg/mL) |  |  |  |  |  |  |  |  |  | increases the activity; also recorded: antibacterial potency greater than that of the cyclic peptide of sequence SEQ ID NO:1 | 33 | >75 | >75 | >75 | 
3 | CC(C)C[C@@H]1NC(=O)[C@H](CCCNC(=N)N)NC(=O)[C@H](Cc2c[nH]cn2)NC(=O)[C@H](Cc2c[nH]c3ccccc23)NC(=O)CNC(=O)CNC(=O)[C@@H](N)CSSC[C@@H](C(=O)O)NC(=O)[C@H](CCCNC(=N)N)NC1=O [SEQ ID NO:1, C^(S)GGWHRLRC^(S)] (H-CGGWHRLRC-OH; disulfide 1-9; N-terminus and C-terminus assumed) |  |  |  |  |  |  | 28 | 75 | 25 | 50 | 26 | 50 | 17 | 50 | 24 | has anti-bacterial activity |  |  |  |  | MIC on M leuteus (Micrococcus luteus; Table 1, growth inhibition in liquid medium, 24 h at 30° C.): 33 µM (≈ 35.8 µg/mL)
4 | CC(C)C[C@@H]1NC(=O)[C@H](CCCNC(=N)N)NC(=O)[C@H](Cc2c[nH]cn2)NC(=O)[C@H](Cc2c[nH]c3ccccc23)NC(=O)CNC(=O)CNC(=O)[C@@H]2CSSC[C@H](NC(=O)[C@H](CCCNC(=N)N)NC1=O)C(=O)N[C@@H]([C@@H](C)O)C(=O)N[C@@H](CO)C(=O)N[C@@H](Cc1ccc(O)cc1)C(=O)N[C@@H](CCCNC(=N)N)C(=O)N[C@H](C(=O)NCC(=O)O)CSSC[C@H](N)C(=O)NCC(=O)NCC(=O)N[C@@H](Cc1ccc(O)cc1)C(=O)N2 [SEQ ID NO:7, C^(S2)GGYC^(S1)GGWHRLRC^(S1)TSYRC^(S2)G] (H-CGGYCGGWHRLRCTSYRCG-OH; disulfide 1-18, 5-13; N-terminus and C-terminus assumed) |  |  |  |  |  |  |  |  |  |  |  |  |  |  |  | more active than the minimal structure |  |  |  |  | ability to lyse cells [3]: brings about the ability to lyse cells

Continued, in another order:

Row | Fusarium oxysporum MIC (Fusarium oxysporum; 24 h) [µM] | Staphylococcus aureus MIC (Staphylococcus aureus) [µM] | Bacillus megaterium MIC (Bacillus megaterium; Bacillus) [µM] | Staphylococcus epidermidis MIC [1] [µM] | Micrococcus luteus MIC (Micrococcus luteus) [µM] | MIC on M leuteus (Micrococcus luteus; 24 h) [µM] | Compound | Fusarium oxysporum MIC (Fusarium oxysporum; Table II, 24 h at 25° C.) [µM] | Staphylococcus aureus MBC (Staphylococcus aureus; Table II) [µM] | Staphylococcus aureus MIC (Staphylococcus aureus; Table II) [µM] | Bacillus megaterium MBC (Bacillus megaterium; Table II) [µM] | Bacillus megaterium MIC (Bacillus megaterium; Table II) [µM] | Staphylococcus epidermidis MBC ([1]; Table II) [µM] | Staphylococcus epidermidis MIC ([1]; Table II) [µM] | Micrococcus luteus MBC (Micrococcus luteus; Table II) [µM] | Micrococcus luteus MIC (Micrococcus luteus; Table II) [µM] | anti-microbial activity (in words) [2] | Staphylococcus aureus MBC (Staphylococcus aureus) [µM] | Bacillus megaterium MBC (Bacillus megaterium; Bacillus) [µM] | Staphylococcus epidermidis MBC [1] [µM] | Micrococcus luteus MBC (Micrococcus luteus) [µM] | also measured
5 | 18.5 | 14 | 24 | 35 | 18 |  | CC(C)C[C@@H]1NC(=O)[C@H](CCCNC(=N)N)NC(=O)[C@H](Cc2c[nH]cn2)NC(=O)[C@H](Cc2c[nH]c3ccccc23)NC(=O)CNC(=O)CNC(=O)[C@H](CO)NC(=O)[C@H](Cc2ccc(O)cc2)NC(=O)CNC(=O)CNC(=O)[C@@H](N)CSSC[C@@H](C(=O)NCC(=O)O)NC(=O)[C@H](CCCNC(=N)N)NC(=O)[C@H](Cc2ccc(O)cc2)NC(=O)[C@H](CO)NC(=O)[C@H]([C@@H](C)O)NC(=O)[C@H](CO)NC(=O)[C@H](CCCNC(=N)N)NC1=O [SEQ ID NO:5, C^(S)GGYSGGWHRLRSTSYRC^(S)G] (H-CGGYSGGWHRLRSTSYRCG-OH; disulfide 1-18; N-terminus and C-terminus assumed) |  |  |  |  |  |  |  |  |  |  | >75 | 75 | >75 | 18 | MBC on M leuteus (Micrococcus luteus; 24 h): 13 µM (≈ 27.3 µg/mL)
6 | 41 | 67 | 52 | 38 | 26 | 67 (≈ 97.1 µg/mL) | CC(C)C[C@@H]1NC(=O)[C@H](CCCNC(=N)N)NC(=O)[C@H](Cc2c[nH]cn2)NC(=O)[C@H](Cc2c[nH]c3ccccc23)NC(=O)CNC(=O)CNC(=O)[C@@H](NC(=O)[C@H](Cc2ccc(O)cc2)NC(=O)CNC(=O)CNC(=O)[C@@H](N)CO)CSSC[C@@H](C(=O)O)NC(=O)[C@H](CCCNC(=N)N)NC1=O [SEQ ID NO:4, SGGYC^(S)GGWHRLRS^(S)] (H-SGGYCGGWHRLRC-OH; disulfide 5-13; N-terminus and C-terminus assumed) |  |  |  |  |  |  |  |  |  |  | >75 | >75 | >75 | 13 | 
